# Experimental data published in patent US11345659B2, “Pipecolic esters for inhibition of the proteasome” (THE BOARD OF REGENTS OF THE UNIVERSY OF TEXAS SYSTEM, priority 2018, dated 2022).
# pEC50, pIC50: −log10 of the molar value.
# Legend:
# [1] = target: T1, latent core 20 S proteasome (Homo sapiens, UniProt P25787+P25789); test: ChT-L peptidase activity of latent 20 S core; type: biochemical; conditions: no tRpt5 activation
# T1 construct: purified from erythrocytes; purchased Enzo Life Sciences, Inc. (Farmingdale, N.Y.); host or cells: human erythrocytes
# Experimental: Human housekeeping 20 S and 26 S and complexes purified from erythrocytes were purchased from Enzo Life Sciences, Inc. (Farmingdale, N.Y.). The 1 mg/ml stock 20 S proteasome was diluted to 0.2 mg/ml working solution in 50 mM Tris/HCl, pH 8 containing 20% glycerol (dilution buffer). For the 26 S proteasome stock, the dilution buffer was supplemented with 2 mM ATP, 1 mM MgCl2, and 1 mM DTT (dithiothreitol). The ChT-L peptidase activity was measured as arbitrary intensity units of fluorescence emitted by 7-amino-4-methylcoumarin (AMC) released from the canonical model peptide substrate succinyl-LeuLeuValTyr-methylcoumarin (SucLLVY-MCA; Bachem Bioscience Inc., Philadelphia, Pa.), used at concentration of 100 μM. Free AMC (Sigma-Aldrich, St. Louis, Mo.) was used as the standard. The Rpt5 C-terminal peptide was synthesized (standard solid-phase peptide chemistry) and purified to at least 98% purity by GenScript (Piscataway, N.J.). […]
# The reaction was carried out in 96-well plates, in 100 μL of reaction mixture, for 1 hour at 37° C. […] The reaction rates were calculated from a linear segment of kinetic curves constructed from measurements in 1-minutes intervals (Fluoroskan Ascent plate reader; Thermo Fisher Scientific Inc., Waltham, Mass.). Reaction rates were calculated using a linear fit executed by Slope Analyzer and Enzyme Kinetics applications launched within Origin Pro 2017 (OriginLab). […]
# [2] = tested on: Human multiple myeloma RPMI 8226 cells; test: Proliferation of RPMI 8226 cells, live cell count by Trypan Blue exclusion; type: cell-based
# Experimental: Human multiple myeloma RPMI 8226 cells were purchased from American Type Culture Collection (ATCC; Manassas, Va.) and cultured according to ATCC specifications. […] The content of live cells was determined by excluding the Trypan Blue-stained cells. The cells were counted with TC20 Automated Cell Counter (Bio-Rad Laboratories, Hercules, Calif.) and EC50 was calculated with Origin Pro 2017 (OriginLab Corporation, Northampton, Mass.). When indicated, the cells were harvested, washed twice in PBS, resuspended in dilution buffer and stored in −80° C. To prepare crude lysates the thawed preparations were vortexed with glass beads and centrifuged for 5 min 5,000×g (4° C.). The supernate was centrifuged for 20 min 14,000×g. The resulting supernate was used as “crude lysate.” SDS-PAGE was carried in 12% acrylamide, Tris-glycine gels from Invitrogen. Chameleon Duo (Li-Cor) and Rainbow RPN800E (GE Healthcare) molecular weight standards were separated on each gel alongside lysates. The proteins were transferred to nitrocellulose membrane in a semi-dry system. The membranes were probed with specific primary antibodies from Life Technologies (S6, PS6) and Li-Cor (COX IV), and then with secondary antibodies from Li-Cor. In each experiment visualization of S6, PS6 and COX IV was performed on the same membrane with Odyssey Infrared Imaging System (Li-Cor).
# The effects of compound 3 observed in vitro prompted its influence on the proliferation of cultured cancer cells to be tested, namely the multiple myeloma RPMI 8226 line. […] Such relatively low EC50, as compared to in vitro determined IC50 values for peptidase activities (2-3 μM; FIG. 3A and FIG. 3B) should come to no surprise. […] The in vitro readout of single peptidase activities is a useful and convenient measure of the catalytic prowess of proteasome. However, especially in the case of allosteric regulators, it may not fully reflect the important structural and functional effects.
# Referring to FIG. […] The data are averages (±SD) of three-to-five independent experiments. […]
structure (smiles),measurement,setting,value
"COc1cc(CCCOC(=O)[C@@H]2CCCCN2C(=O)OCc2ccccc2)cc(OC)c1OC [Compound 3, 1-benzyl 2-(3-(3,4,5-trimethoxyphenyl)propyl) (S)-piperidine-1,2-dicarboxylate]",pIC50,[1],5.55
same,activity at 0.2 µM,"[2]; RPMI 8226, 0.2 μM, 24 hours, read-out: cell proliferation, % of control",60 to 65%
same,pEC50,"[2]; RPMI 8226, 48 hours, read-out: EC50, content of live cells",6.26
